As usually defined, the melting point is the temperature, or range, at which the solid turns liquid.

`CN1C(=O)C2(COc3cc4c(cc32)OCCO4)c2c(NC(=O)NC3CCCC3)cccc21` (stereo not drawn) gave a melting point of 133 to 135 °C.
For `NC(N)=Nc1nc(-c2cccc(CO)n2)cs1` the value was 229 °C.
The compound `COC(=O)c1ccncc1SCc1ccccc1` returned a melting point of 80 °C.
Under `COC(=O)C(Cl)=Cc1ccc(Cl)cc1` stands 78 to 80 °C.
`COc1cccc(C2C(=O)c3ccccc3C2=O)c1` displayed a melting point of 142 to 144 °C.
Under `N#Cc1cnccc1O` stands 234 to 236 °C; under `CCc1cnc(N2CCN(C(=O)c3ccccc3NC3(c4ccccc4)NC=Nc4ccccc43)CC2)nc1` (stereo not drawn), above 250 °C; under `CC(C)(OCc1cc(-c2ccc(Cl)cc2)no1)C(=O)N1CCCCC1`, 239 to 242 °C.
For `COC(=O)c1ccc(C(F)(F)F)cc1C#N` the value was 52 °C; for `COC(=O)c1oc(C)nc1-c1ccc2c(c1)CCCC2`, 96 to 97 °C; for `CCOC(=O)C(NO)NC(C)=O` (stereo not drawn), 119 to 121 °C.
Under `Fc1ccc([C@]2(Cn3nc[nH]c3=S)O[C@H]2c2ccccc2Cl)c(F)c1` (racemic) stands 180 °C.
On to `O=C1C(=O)N(c2cccc(C(F)(F)F)c2)C(=O)N1c1ccccc1`, for which the melting point was 116 °C.
`Cc1c(N2CC(COC(=O)C(C)C)C(COC(=O)C(C)C)C2)c(F)cc2c(=O)c(C(=O)O)cn(C3CC3)c12` (stereo not drawn) showed a melting point of 141 to 143 °C.
`CC(=O)Nc1nc(Cl)c(NC=O)c(N[C@@H]2C=C[C@H](CO)C2)n1` (relative stereo) returned a melting point of 194 to 195 °C.
Consider `COc1nc(-c2ccc(F)cc2)nc(-c2ccccn2)n1`, for which the melting point is above 270 °C.
Under `CC(C)N(CCCCO)c1cnc(-c2ccccc2)c(-c2ccccc2)n1` stands 102 to 103 °C.
Take `CCOC(=O)/C(C)=C(/C)c1cccc(OCc2nc(-c3ccc(C(F)(F)F)cc3)oc2C)c1`: the melting point was 115 to 116 °C.
Consider `O=C(Nc1ccc(-n2nc(C(F)(F)F)cc2C2CC2)nc1)c1c(Cl)cncc1Cl`, for which the melting point lay within 223 to 225 °C.
As for `CNc1ccc(C)cc1C(=O)Cc1nnnn1C`, the melting point fell in the range of 141 to 143 °C.
Under `COCCNC(=O)c1nc2cc(NC(=O)c3c(C(=O)N4CCC4)cnn3C)ccn2n1` stands 159 to 161 °C; under `COc1nc(N)c(Cl)cc1C(=O)CCC1CCN(CC(C)C)CC1`, 128 °C.
In turn, `Cc1cccc2c1O[C@@H](CN1CCC(CNC(=O)c3cccnc3N)CC1)CO2` had a melting point of 56 to 58 °C.
The compound `CC(=O)Nc1cccc(Nc2ncc3ccc(-c4cccn4CCC#N)n3n2)c1` yielded a melting point of 131 to 139 °C.
For `O=C(Nc1cccc(Cl)c1)ONC1=Nc2ccc([N+](=O)[O-])cc2C(c2ccccc2Cl)=NC1` the value was 130 to 135 °C; for `CCc1cc([N+](=O)[O-])c(NC(CC)COC)c([N+](=O)[O-])c1COC` (stereo not drawn), 54 to 55 °C; for `CCCOc1c(OC)cc(C(=O)O)cc1[N+](=O)[O-]`, 121 to 123 °C.
The compound `O=C(O)c1ccc(OCC(O)CO)cc1O` (stereo not drawn) had a melting point of 151 to 153 °C.
For `CCCCCn1c2ccc(C(=O)NC34CC5CC(CC(C5)C3)C4)cc2c2ccc(OC)cc21` the value was 141 to 142 °C.
For `NNC1=Nc2ccc(Cl)cc2N(c2ccccc2)C(=O)C1` the value was 91 to 93 °C; for `c1ccc(CN2CCN(Cc3ccccc3)[C@@H](CCc3ccccn3)C2)cc1`, 83 to 86 °C.
The compound `Nc1ncccc1-c1nc2cc(C(F)(F)F)cnc2n1-c1ccc(CNC(=O)c2cccc(F)c2)cc1` gave a melting point of 230 to 231 °C.
On to `O=C(c1ccc(F)c(F)c1)N1CCC[C@H](c2nc(-c3cscn3)no2)C1`, for which the melting point was in the range of 107 to 109 °C.
Under `N#Cc1cnc2sc(-c3ccccc3)cc2c1NCCc1c[nH]cn1` stands above 245 °C; under `CCOC(=O)c1sc(SC)c2c1CCc1cn[nH]c1-2`, 207 to 208 °C.
In the case of `Cc1ccccc1CC[C@H]([C@H](C)O)n1cnc(C(N)=O)c1`, the melting point is 60 to 62 °C.
`Cc1cn(C)c2cc(NC(=O)c3ccc(C(C)(C)O)cc3)ncc12` showed a melting point of 196 to 197 °C.
Under `Cc1cc(OCCCCCl)cc(-c2ccc(F)cc2)n1` stands 59 to 61 °C; under `O=C1CC(c2csc(-n3ccnc3)n2)=Nc2ccc(-c3ccc(F)cc3)cc2N1`, 214 °C; under `Oc1ccc2c(c1)Nc1ccccc1S2`, 207 to 208 °C.
For the compound `COc1cc(C=CCO)ccc1OCc1ccccc1`, the melting point is 81 to 82 °C.
As for `COC(=O)C1Cc2c([nH]c3ccccc23)CN1C(=S)SC` (stereo not drawn), the melting point is 132 to 134 °C.
`CC(C(=O)O)c1ccc2c(=O)c3ccccc3ccc2c1` (stereo not drawn) came in with a melting point of 108 to 110 °C.
Under `Cc1c(C(=O)O)cnn1-c1ccc(I)cc1` stands 225 °C.
Compound `Nc1ncc(C(=O)Cl)cc1Cl` gave a melting point above 250 °C.
For `CCCCCCCCCCCCON(Cc1ccccc1)C(c1ccccc1)P(=O)(OCCCCCCCCCCCC)OCCCCCCCCCCCC` (stereo not drawn) the value was 38 to 40 °C; for `CCN(CC)C1=C2N=c3cc(Cl)ccc3=C2Oc2ccccc2N1Cc1ccccc1`, 132 to 134 °C; for `CC(=O)N1N=C(c2ccc([N+](=O)[O-])c(C)c2)c2cc3c(cc2CC1C(N)=O)OCO3` (stereo not drawn), 157 to 161 °C.
Under `O=C1c2c(-c3ccccc3)noc2CCC1CCCN1CCC(O)(c2ccc(Cl)cc2)CC1` (stereo not drawn) stands 147 to 148 °C.
`CC(=O)Oc1ccc2c(c1)C(=O)CC1C2CCC2(C)C(OC(C)=O)CCC12` (stereo not drawn) displayed a melting point of 171 to 175 °C.
For `CCCc1c[nH]c(=O)[nH]c1=O` the value was 286 to 287 °C; for `Nc1nc(NCC=Cc2ccccc2)nc(-c2cc(Cl)ccc2Cl)n1`, 198 to 199 °C; for `CCNS(=O)(=O)Oc1cc(C(C)(C)C)c(SC2=C(O)CC(CCc3ccc(N)cc3)(CCc3ccc(N)cc3)OC2=O)cc1C`, 194 °C.
With `O=S1(=O)c2ccccc2Oc2cc(F)ccc21`, the melting point was in the range of 174 to 176 °C.
Under `CCC(NS(C)(=O)=O)P(=O)(Oc1ccccc1)Oc1ccccc1` (stereo not drawn) stands 136 to 139 °C; under `COc1c(C)c(OC(=O)c2c(C)c(C)c(OCCCOc3ccc(C(N)=O)cc3)c(C)c2OC)c(C)c(C)c1C(N)=O`, 284 to 286 °C; under `CCCSc1ccc(NS(=O)(=O)c2cccs2)c2[nH]c(C(=O)OCC)cc12`, 150 to 151 °C.
Regarding `Cc1c(Br)ccc(N)c1S(C)(=O)=O`, the melting point lay within 103 to 106 °C.
Under `Nc1c(C#Cc2ccccc2)cnnc1C1CN2CCNC1CC2` (stereo not drawn) stands 182 to 183 °C; under `CNC(=O)C1=CC2(CCOCC2)Oc2ccc([N+](=O)[O-])cc21`, 183 to 184 °C; under `COC(=O)COc1ccc2c(c1)S(=O)(=O)C=C(c1c(O)c3cc(F)ccc3n(Cc3ccc(F)cc3)c1=O)N2`, 200 to 207 °C.
Take `CCCCCCOc1c(CBr)ccc2c(OCCCCCC)c(CBr)ccc12`: the melting point fell in the range of 58 to 60 °C.
For `CCCN(c1nc(-c2ccc(OC)cc2Cl)c(C)s1)c1cc(CO)ccc1OC` the value was 115 °C; for `c1cn(CCc2ccc3c(c2)Cc2c(-c4ccsc4)n[nH]c2-3)cn1`, 160 to 165 °C.
In turn, `Cc1cc2cn[nH]c2c(C(=O)NC(C)C)c1NC(=O)c1cc(C(F)F)nn1-c1ncccc1Cl` yielded a melting point of 250 to 253 °C.
For `CCc1nnc(-c2cccc(N(C)C)c2)n1-c1ccc(OC)cc1` the value was 170 °C; for `O=[N+]([O-])c1cccc(OC2CCCCO2)c1O` (stereo not drawn), 72 to 73 °C; for `CC(C)C1NC(=O)OC1C(F)(F)F` (stereo not drawn), 71 to 72 °C.
Under `CCCC(=O)c1cc(O)c(O)c([N+](=O)[O-])c1` stands 88 to 90 °C; under `Nc1ccc(N)c(I)c1`, 95 to 99 °C.
As for `NC(=S)c1cc(Cl)cc2cc(Cl)cnc12`, the melting point stood at 226 °C.
Consider `O=C1N(Cc2ccc(C(F)(F)F)o2)c2ccccc2C12COc1cc(NC3CCNC3)ccc12` (stereo not drawn), for which the melting point fell in the range of 122 to 125 °C.
Consider `Cc1ccc2c(c1)c(N1CCN(C(=O)c3cccs3)CC1)c(C#N)c(=O)n2Cc1ccc(F)cc1`, for which the melting point worked out at 274 °C.
Under `CCSc1cc(C)nc(SCC)c1NC(=O)CCCCCSc1nc2ccccc2s1` stands 81 to 83 °C.
In turn, `COC(=O)C(C)(C)C(Cc1ccc(OC)cc1)NS(=O)(=O)c1ccc(C)cc1` (stereo not drawn) displayed a melting point of 126 to 127 °C.
In turn, `O=C(c1cc(C(F)(F)F)ccc1Cl)c1cc(C(F)(F)F)ccc1Cl` displayed a melting point of 70 to 72 °C.
Compound `Cc1cccc(Cl)c1NS(=O)(=O)c1nc(N)n(C(=O)Oc2ccccc2)n1` gave a melting point of 200 °C.
Compound `CCOc1cccc(C(=O)Nc2ccc(C(=O)N3CCCc4ccccc43)cc2)c1` showed a melting point of 170 to 172 °C.
As for `CN(C(=O)c1cnc(N2CCNC2=O)nc1N)c1cccc(C(F)(F)F)c1`, the melting point lay in the range of 249 to 250 °C.
Under `Clc1ccc(-c2cc(C3CCN(CC4CCCCC4)CC3)n[nH]2)cc1` stands 186 to 187 °C; under `CN1C(=O)CCCc2cc(Nc3ncc(Cl)c(Nc4ccc(N5CCCCC5)cc4C(N)=O)n3)ccc21`, 295 to 297 °C; under `CCOc1c(F)cc2[nH]c(=O)c(=O)[nH]c2c1[N+](=O)[O-]`, 293 to 295 °C.
In turn, `COc1ccc(S(=O)(=O)N2C(=O)C(c3ccccc3OC)(N3C[C@H](OC)C[C@H]3C(=O)N(C)C)c3cc(Cl)ccc32)c(OC)c1` (stereo partly drawn) had a melting point of 189 to 191 °C.
Under `COP(=O)(CC(=O)[C@@H]1COC(C)(C)N1C(=O)OC(C)(C)C)OC` stands 86 to 87 °C; under `Cc1sc(-c2ccccc2)nc1COc1ccc(CCC[C@@H](O)C(=O)O)cc1`, 117 to 118 °C.
Under `COc1c(S(=O)(=O)Cl)ccc(Cl)c1CBr` stands 88 to 92 °C; under `CC(C)(C)OC(=O)N1CCC[C@H](O)[C@@H]1c1ccc(Cl)cc1` (relative stereo), 95 to 96 °C.
For `CCOC(=O)c1cc2c(C)cccc2n1CCNS(=O)(=O)c1ccc(C)cc1` the value was 92 to 93 °C.

The values above are taken from a melting point compilation (Tetko et al.; mined from patent text by program, amines drawn as free bases though some values may be those of a salt).
